According to patent US7928093B2, “Amino-propanol derivatives” (Novartis AG, priority 2004, dated 2011):
pEC50: −log10 of the molar value.

Columns and labels:
[1] = test system: peripheral blood lymphocytes; test: Blood lymphocyte depletion in vivo; details: rats, p.o., after 6 h
Procedure: B. In Vivo: Blood Lymphocyte Depletion
A compound of formula I or the vehicle is administered orally by gavage to rats. Tail blood for hematological monitoring is obtained on day −1 to give the baseline individual values, and at 2, 6, 24, 48 and 72 hours after application. In this assay, the compounds of formula I deplete peripheral blood lymphocytes when administered at a dose of 0.03 to 3 mg/kg. For example, following results are obtained: depletion of peripheral blood lymphocytes by more than 50%.

[2] = molecular target: T1, human S1P receptor EDG-8 (S1P5) (Homo sapiens, UniProt Q9H228); test: S1P receptor profiling, GTP[γ-35S] binding SPA; type: biochemical; design: key to S1P5 mode of action: Agon = agonist; details: for pEC50: membranes of transfected CHO or RH7777 cells
T1 construct: expressed in transfected cells
T1 sequence (Q9H228 whole entry): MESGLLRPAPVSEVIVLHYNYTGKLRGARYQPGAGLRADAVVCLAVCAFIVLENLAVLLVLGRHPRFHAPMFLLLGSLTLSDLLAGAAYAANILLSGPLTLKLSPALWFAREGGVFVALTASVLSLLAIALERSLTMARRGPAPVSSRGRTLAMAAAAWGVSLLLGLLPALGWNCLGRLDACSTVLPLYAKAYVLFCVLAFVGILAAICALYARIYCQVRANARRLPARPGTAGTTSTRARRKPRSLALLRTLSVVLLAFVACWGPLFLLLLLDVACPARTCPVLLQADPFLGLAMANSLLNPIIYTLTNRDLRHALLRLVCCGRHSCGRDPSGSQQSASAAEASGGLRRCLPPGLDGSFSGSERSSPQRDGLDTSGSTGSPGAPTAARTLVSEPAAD
Procedure: (§1) Sphingosine-1-phosphate (S1P) Receptor Profiling
(§2) Agonist activities of compounds are tested on the human S1P receptors EDG-1 (S1P1), EDG-3 (S1P3), EDG-5 (S1P2), EDG-6 (S1P4) and EDG-8 (S1P5). […] The assay technology used is SPA (scintillation proximity based assay). Briefly, DMSO dissolved compounds are serially diluted and added to SPA-bead (Amersham-Pharmacia) immobilised SIP receptor expressing membrane protein (10-20 μg/well) in the presence of 50 mM Hepes, 100 mM NaCl, 10 mM MgCl2, 10 μM GDP, 0.1% fat free BSA and 0.2 nM GTP [γ-^35S] (1200 Ci/mmol). After incubation in 96 well microtiterplates at RT for 120 min, unbound GTP [γ-^35S] is separated by a centrifugation step. Luminescence of SPA beads triggered by membrane bound GTP [γ-^35S] is quantified with a TOPcount plate reader (Packard). EC50s are calculated using standard curve fitting software. In this assay, the compounds of formula I have a binding affinity to S1P1 receptor <50 nM.

[3] = molecular target: T2, human S1P receptor EDG-3 (S1P3) (Homo sapiens, UniProt Q99500); test: S1P receptor profiling, GTP[γ-35S] binding SPA; type: biochemical; design: key to S1P3 mode of action: Agon = agonist; details: for pEC50: membranes of transfected CHO or RH7777 cells
T2 construct: expressed in transfected cells
T2 sequence (Q99500 whole entry): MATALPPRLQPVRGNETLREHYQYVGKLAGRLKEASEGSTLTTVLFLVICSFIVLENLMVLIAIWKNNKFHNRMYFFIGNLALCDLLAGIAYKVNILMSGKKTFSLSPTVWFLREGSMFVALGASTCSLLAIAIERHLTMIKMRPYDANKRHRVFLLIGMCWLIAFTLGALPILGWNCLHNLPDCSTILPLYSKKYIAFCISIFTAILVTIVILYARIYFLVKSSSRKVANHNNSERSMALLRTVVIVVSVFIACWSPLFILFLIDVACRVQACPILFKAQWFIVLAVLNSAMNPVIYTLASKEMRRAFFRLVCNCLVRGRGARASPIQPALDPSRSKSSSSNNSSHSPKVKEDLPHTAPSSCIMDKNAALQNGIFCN
Procedure: as §1, §2

[4] = molecular target: T3, human S1P receptor EDG-1 (S1P1) (Homo sapiens, UniProt P21453); test: S1P receptor profiling, GTP[γ-35S] binding SPA; type: biochemical; design: key to S1P1 mode of action: Agon = agonist; details: for pEC50: membranes of transfected CHO or RH7777 cells
T3 construct: expressed in transfected cells
T3 sequence (P21453 whole entry): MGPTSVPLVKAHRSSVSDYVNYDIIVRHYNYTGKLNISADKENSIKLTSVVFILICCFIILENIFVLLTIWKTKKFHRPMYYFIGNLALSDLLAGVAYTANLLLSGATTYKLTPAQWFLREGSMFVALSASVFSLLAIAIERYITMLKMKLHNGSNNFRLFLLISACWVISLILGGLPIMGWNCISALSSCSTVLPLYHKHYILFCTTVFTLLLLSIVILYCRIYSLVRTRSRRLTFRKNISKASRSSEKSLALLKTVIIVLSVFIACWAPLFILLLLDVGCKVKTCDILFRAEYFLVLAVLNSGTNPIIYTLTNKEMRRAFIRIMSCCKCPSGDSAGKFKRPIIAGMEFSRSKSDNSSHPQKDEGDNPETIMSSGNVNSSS
Procedure: as §1, §2

[5] = molecular target: T4, human S1P receptor EDG-6 (S1P4) (Homo sapiens, UniProt O95977); test: S1P receptor profiling, GTP[γ-35S] binding SPA; type: biochemical; design: key to S1P4 mode of action: Agon = agonist; details: for pEC50: membranes of transfected CHO or RH7777 cells
T4 construct: expressed in transfected cells
T4 sequence (O95977 1-384): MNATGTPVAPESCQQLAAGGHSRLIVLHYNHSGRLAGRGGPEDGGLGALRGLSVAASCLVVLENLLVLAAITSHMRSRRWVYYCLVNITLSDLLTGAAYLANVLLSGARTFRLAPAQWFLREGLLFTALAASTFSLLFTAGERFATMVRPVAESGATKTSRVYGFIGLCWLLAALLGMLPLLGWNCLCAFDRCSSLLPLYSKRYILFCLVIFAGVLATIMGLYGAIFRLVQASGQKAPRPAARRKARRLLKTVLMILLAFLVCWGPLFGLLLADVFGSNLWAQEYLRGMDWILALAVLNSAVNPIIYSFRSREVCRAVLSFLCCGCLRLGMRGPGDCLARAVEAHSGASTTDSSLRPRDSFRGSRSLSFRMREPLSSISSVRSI
Procedure: as §1, §2

SMILES: CCCCCCCOc1ccc(CC[C@@](C)(N)[C@@H](C)O)cc1 [Example 1, (2R,3R)-3-Amino-5-(4-heptyloxy-phenyl)-3-methyl-pentan-2-ol]
- dose giving depletion of peripheral blood lymphocytes by more than 50% [1]: 0.07 mg/kg

SMILES: CCCCCOc1ccc2cc(CC[C@@](C)(N)[C@@H](C)O)ccc2c1 [Example 12, (2R,3R)-3-Amino-5-(6-pentyloxy-naphthalen-2-yl)-3-methyl-pentan-2-ol]
- dose giving depletion of peripheral blood lymphocytes by more than 50% [1]: 0.4 mg/kg

SMILES: C[C@H](O)[C@](C)(N)CCc1ccc(OCCCCCc2ccccc2)cc1 [Example 13, (2S,3R)-3-Amino-3-methyl-5-[4-(5-phenyl-pentyloxy)-phenyl]-pentan-2-ol]
- dose giving depletion of peripheral blood lymphocytes by more than 50% [1]: 0.5 mg/kg

SMILES: C[C@@H](O)[C@](C)(N)CCc1ccc(OCCCCc2ccccc2)cc1 [Example 14, (2R,3R)-3-Amino-3-methyl-5-[4-(4-phenyl-butoxy)-phenyl]-pentan-2-ol]
- dose giving depletion of peripheral blood lymphocytes by more than 50% [1]: 0.1 mg/kg

SMILES: C[C@H](O)[C@](C)(N)CCc1ccc(OCCCCc2ccccc2)cc1 [Example 15, (2S,3R)-3-Amino-3-methyl-5-[4-(4-phenyl-butoxy)-phenyl]-pentan-2-ol]
- dose giving depletion of peripheral blood lymphocytes by more than 50% [1]: 0.6 mg/kg

SMILES: C[C@@H](O)[C@](C)(N)CCc1ccc(OCCc2ccc(-c3ccccc3)cc2)cc1 [Example 17, (2R,3R)-3-Amino-5-[4-(2-biphenyl-4-yl-ethoxy)-phenyl]-3-methyl-pentan-2-ol]
- dose giving depletion of peripheral blood lymphocytes by more than 50% [1]: 0.2 mg/kg

SMILES: CCCCCCCOc1ccc(CC[C@@](C)(N)[C@@H](C)OP(=O)(O)O)cc1 [Example 18, Phosphoric acid mono-[(1R,2R)-2-amino-4-(4-heptyloxy-phenyl)-1,2-dimethyl-butyl]ester]
- S1P5 mode of action [2]: Agon
- pEC50 [2]: 9.13
- S1P3 mode of action [3]: Agon
- pEC50 [3]: 8.34
- S1P1 mode of action [4]: Agon
- pEC50 [4]: 9.29
- S1P4 mode of action [5]: Agon
- pEC50 [5]: 9.15

SMILES: CCCCCCCOc1ccc(CC[C@@](C)(N)[C@H](C)OP(=O)(O)O)cc1 [Example 19, Phosphoric acid mono-[(1S,2R)-2-amino-4-(4-heptyloxy-phenyl)-1,2-dimethyl-butyl]ester]
- S1P5 mode of action [2]: Agon
- pEC50 [2]: 9.82
- S1P3 mode of action [3]: Agon
- pEC50 [3]: 8.85
- S1P1 mode of action [4]: Agon
- pEC50 [4]: 10.15
- S1P4 mode of action [5]: Agon
- pEC50 [5]: 9.40

SMILES: CCCCCOc1ccc2cc(CC[C@@](C)(N)[C@@H](C)OP(=O)(O)O)ccc2c1 [Example 20, Phosphoric acid mono-[(1R,2R)-2-amino-1,2-dimethyl-4-(6-pentyloxy-naphthalen-2-yl)-butyl]ester]
- S1P5 mode of action [2]: Agon
- pEC50 [2]: 9.54
- S1P3 mode of action [3]: Agon
- pEC50 [3]: 8.07
- S1P1 mode of action [4]: Agon
- pEC50 [4]: 9.89
- S1P4 mode of action [5]: Agon
- pEC50 [5]: 9.17
